Measurements from US20260028326A1, “COMPOUND BASED ON ISOINDOLINE-SUBSTITUTED GLUTARIMIDE BACKBONE AND USE THEREOF” (GLUETACS THERAPEUTICS (SHANGHAI) CO., LTD., priority 2022, published 2026).

biological target: human Cereblon WT GST-tagged protein (Homo sapiens (Human), UniProt Q96SW2); assay: CRBN-binding affinity, HTRF (CEREBLON BINDING kit)
How it was run: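 GST-tagged human WT Cereblon incubated with compound, then Thalidomide-Re tracer and anti-GST Eu antibody added. Displacement read by HTRF, reported as CRBN binding inhibition rate against blank control wells without protein.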

Chain of human Cereblon WT GST-tagged protein (Q96SW2 whole entry): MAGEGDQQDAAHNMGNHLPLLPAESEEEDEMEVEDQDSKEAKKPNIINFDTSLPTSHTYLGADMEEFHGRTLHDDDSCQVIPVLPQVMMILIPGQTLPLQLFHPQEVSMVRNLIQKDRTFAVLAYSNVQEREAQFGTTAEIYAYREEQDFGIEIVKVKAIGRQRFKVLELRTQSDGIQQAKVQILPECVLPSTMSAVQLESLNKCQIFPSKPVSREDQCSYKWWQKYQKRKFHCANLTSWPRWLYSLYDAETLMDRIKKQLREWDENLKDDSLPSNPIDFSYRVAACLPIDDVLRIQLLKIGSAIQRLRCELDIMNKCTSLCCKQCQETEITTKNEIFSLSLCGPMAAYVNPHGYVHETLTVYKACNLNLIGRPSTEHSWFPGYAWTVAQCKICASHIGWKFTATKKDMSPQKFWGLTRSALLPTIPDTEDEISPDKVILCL

Compound	IC50
CC1(C)CCC(CN2CCC(Cc3ccc4c(c3)CN(C3CCC(=O)NC3=O)C4=O)CC2)=C(c2ccc(Cl)cc2)C1 (stereo not drawn) [GT-03368, 3-(5-((1-((4′-chloro-5,5-dimethyl-3,4,5,6-tetrahydro-[1,1′-biphenyl]-2-yl)methyl)piperidin-4-yl)methyl)-1-oxoisoindolin-2-yl)piperidine-2,6-dione]	1380 nM
O=C1CCC(N2Cc3cc(CC4CN(Cc5ccccc5-c5ccc(Cl)cc5)C4)ccc3C2=O)C(=O)N1 (stereo not drawn) [GT-03923, 3-(5-((1-((4′-chloro-[1,1′-biphenyl]-2-yl)methyl)azetidin-3-yl)methyl)-1-oxoisoindolin-2-yl)piperidine-2,6-dione]	170 nM
CC1(C)CCC(C(=O)N2CCN(Cc3ccc4c(c3)CN(C3CCC(=O)NC3=O)C4=O)CC2)=C(c2ccc(F)cc2)C1 (stereo not drawn) [GT-05520, 3-(5-((4-(4′-fluoro-5,5-dimethyl-3,4,5,6-tetrahydro-[1,1′-biphenyl]-2-carbonyl)piperazin-1-yl)methyl)-1-oxoisoindolin-2-yl)piperidine-2,6-dione]	350 nM
O=C1CCC(N2Cc3cc(C(=O)N4C5CCC4CN(Cc4ccccc4-c4ccc(Cl)cc4)C5)ccc3C2=O)C(=O)N1 (stereo not drawn) [GT-05638, 3-(5-(3-((4′-chloro-[1,1′-biphenyl]-2-yl)methyl)-3,8-diazabicyclo[3.2.1]octane-8-carbonyl)-1-oxoisoindolin-2-yl)piperidine-2,6-dione]	1210 nM
O=C1CCC(N2Cc3cc(CN4CC5CC4CN5Cc4ccccc4-c4ccc(Cl)cc4)ccc3C2=O)C(=O)N1 (stereo not drawn) [GT-05707, 3-(5-((5-((4′-chloro-[1,1′-biphenyl]-2-yl)methyl)-2,5-diazabicyclo[2.2.1]heptan-2-yl)methyl)-1-oxoisoindolin-2-yl)piperidine-2,6-dione]	710 nM
CC1(C)CCC(CN2CCN(C(=O)c3ccc4c(c3)CN(C3CCC(=O)NC3=O)C4=O)CC2)=C(c2ccc(Cl)cc2)C1 (stereo not drawn) [GT-05445, 3-(5-(4-((4′-chloro-5,5-dimethyl-3,4,5,6-tetrahydro-[1,1′-biphenyl]-2-yl)methyl)piperazine-1-carbonyl)-1-oxoisoindolin-2-yl)piperidine-2,6-dione]	1910 nM
O=C1CCC(N2Cc3cc(CN4CCN(Cc5ccccc5-c5ccc(Cl)cc5)CC4)cc(F)c3C2=O)C(=O)N1 (stereo not drawn) [GT-03696, 3-(5-((4-((4′-chloro-[1,1′-biphenyl]-2-yl)methyl)piperazin-1-yl)methyl)-7-fluoro-1-oxoisoindolin-2-yl)piperidine-2,6-dione]	880 nM
O=C1CCC(N2Cc3cc(CN4CC5CN(C(=O)c6ccccc6-c6ccc(Cl)cc6)CC5C4)ccc3C2=O)C(=O)N1 (stereo not drawn) [GT-05645, 3-(5-((5-(4′-chloro-[1,1′-biphenyl]-2-carbonyl)hexahydropyrrolo[3,4-c]pyrrol-2(1H)-yl)methyl)-1-oxoisoindolin-2-yl)piperidine-2,6-dione]	700 nM
CC1(C)CCC(C(=O)N2CC3CN(C(=O)c4ccc5c(c4)CN(C4CCC(=O)NC4=O)C5=O)CC3C2)=C(c2ccc(Cl)cc2)C1 (stereo not drawn) [GT-05659, 3-(5-(5-(4′-chloro-5,5-dimethyl-3,4,5,6-tetrahydro-[1,1′-biphenyl]-2-carbonyl)octahydropyrrolo[3,4-c]pyrrole-2-carbonyl)-1-oxoisoindolin-2-yl)piperidine-2,6-dione]	660 nM
O=C1CCC(N2Cc3cc(CN4CCN(C(=O)C5=C(c6ccc(F)cc6)CCCC5)CC4)ccc3C2=O)C(=O)N1 (stereo not drawn) [GT-04170, 3-(5-((4-(4′-fluoro-3,4,5,6-tetrahydro-[1,1′-biphenyl]-2-carbonyl)piperazin-1-yl)methyl)-1-oxoisoindolin-2-yl)piperidine-2,6-dione]	1010 nM
CC1(C)CCC(CN2CC3CCC(C2)N3c2ccc3c(c2)CN(C2CCC(=O)NC2=O)C3=O)=C(c2ccc(F)cc2)C1 (stereo not drawn) [GT-05498, 3-(5-(3-((4′-fluoro-5,5-dimethyl-3,4,5,6-tetrahydro-[1,1′-biphenyl]-2-yl)methyl)-3,8-diazabicyclo[3.2.1]octan-8-yl)-1-oxoisoindolin-2-yl)piperidine-2,6-dione]	1520 nM
CC1(C)CCC(CN2CC3CCC2CN3Cc2cc(F)c3c(c2)CN(C2CCC(=O)NC2=O)C3=O)=C(c2ccc(Cl)cc2)C1 (stereo not drawn) [GT-05781, 3-(5-((5-((4′-chloro-5,5-dimethyl-3,4,5,6-tetrahydro-[1,1′-biphenyl]-2-yl)methyl)-2,5-diazabicyclo[2.2.2]octan-2-yl)methyl)-7-fluoro-1-oxoisoindolin-2-yl)piperidine-2,6-dione]	710 nM
CC1(C)CCC(CN2C3CCC2CN(c2ccc4c(c2)CN(C2CCC(=O)NC2=O)C4=O)C3)=C(c2ccc(Cl)cc2)C1 (stereo not drawn) [GT-05429, 3-(5-(8-((4′-chloro-5,5-dimethyl-3,4,5,6-tetrahydro-[1,1′-biphenyl]-2-yl)methyl)-3,8-diazabicyclo[3.2.1]octan-3-yl)-1-oxoisoindolin-2-yl)piperidine-2,6-dione]	1490 nM
O=C1CCC(N2Cc3cc(C(=O)N4CCN(CC5=C(c6ccc(F)cc6)CCCC5)CC4)ccc3C2=O)C(=O)N1 (stereo not drawn) [GT-05863, 3-(5-(4-((4′-fluoro-3,4,5,6-tetrahydro-[1,1′-biphenyl]-2-yl)methyl)piperazine-1-carbonyl)-1-oxoisoindolin-2-yl)piperidine-2,6-dione]	1020 nM
O=C1CCC(N2Cc3cc(CCN4CCN(Cc5ccccc5-c5ccc(Cl)cc5)CC4)ccc3C2=O)C(=O)N1 (stereo not drawn) [GT-05876, 3-(5-(2-(4-((4′-chloro-[1,1′-biphenyl]-2-yl)methyl)piperazin-1-yl)ethyl)-1-oxoisoindolin-2-yl)piperidine-2,6-dione]	120 nM
O=C1CCC(N2Cc3cc(C(=O)N4CC5(CN(Cc6ccccc6-c6ccc(Cl)cc6)C5)C4)ccc3C2=O)C(=O)N1 (stereo not drawn) [GT-05637, 3-(5-(6-((4′-chloro-[1,1′-biphenyl]-2-yl)methyl)-2,6-diazaspiro[3.3]heptane-2-carbonyl)-1-oxoisoindolin-2-yl)piperidine-2,6-dione]	1070 nM
CC1(C)CCC(C(=O)N2CC3CCC(C2)N3c2ccc3c(c2)CN(C2CCC(=O)NC2=O)C3=O)=C(c2ccc(F)cc2)C1 (stereo not drawn) [GT-05492, 3-(5-(3-(4′-fluoro-5,5-dimethyl-3,4,5,6-tetrahydro-[1,1′-biphenyl]-2-carbonyl)-3,8-diazabicyclo[3.2.1]octan-8-yl)-1-oxoisoindolin-2-yl)piperidine-2,6-dione]	830 nM
CC1(C)CCC(CN2CCN(CCc3ccc4c(c3)CN(C3CCC(=O)NC3=O)C4=O)CC2)=C(c2ccc(Cl)cc2)C1 (stereo not drawn) [GT-05361, 3-(5-(2-(4-((4′-chloro-5,5-dimethyl-3,4,5,6-tetrahydro-[1,1′-biphenyl]-2-yl)methyl)piperazin-1-yl)ethyl)-1-oxoisoindolin-2-yl)piperidine-2,6-dione]	370 nM
O=C1CCC(N2Cc3cc(CN4CCCN(Cc5ccccc5-c5ccc(Cl)cc5)CC4)ccc3C2=O)C(=O)N1 (stereo not drawn) [GT-05611, 3-(5-((4-((4′-chloro-[1,1′-biphenyl]-2-yl)methyl)-1,4-diazepan-1-yl)methyl)-1-oxoisoindolin-2-yl)piperidine-2,6-dione]	630 nM
CC1(C)CCC(CN2C3CCC2CN(C(=O)c2ccc4c(c2)CN(C2CCC(=O)NC2=O)C4=O)C3)=C(c2ccc(F)cc2)C1 (stereo not drawn) [GT-05511, 3-(5-(8-((4′-fluoro-5,5-dimethyl-3,4,5,6-tetrahydro-[1,1′-biphenyl]-2-yl)methyl)-3,8-diazabicyclo[3.2.1]octane-3-carbonyl)-1-oxoisoindolin-2-yl)piperidine-2,6-dione]	1950 nM
O=C1CCC(N2Cc3cc(CN4CC5CCC4CN5C(=O)c4ccccc4-c4ccc(Cl)cc4)ccc3C2=O)C(=O)N1 (stereo not drawn) [GT-05543, 3-(5-((5-(4′-chloro-[1,1′-biphenyl]-2-carbonyl)-2,5-diazabicyclo[2.2.2]octan-2-yl)methyl)-1-oxoisoindolin-2-yl)piperidine-2,6-dione]	450 nM
CC1(C)CCC(C(=O)N2CC3CC(C2)N3Cc2ccc3c(c2)CN(C2CCC(=O)NC2=O)C3=O)=C(c2ccc(Cl)cc2)C1 (stereo not drawn) [GT-05521, 3-(5-((3-(4′-chloro-5,5-dimethyl-3,4,5,6-tetrahydro-[1,1′-biphenyl]-2-carbonyl)-3,6-diazabicyclo[3.1.1]heptan-6-yl)methyl)-1-oxoisoindolin-2-yl)piperidine-2,6-dione]	620 nM
O=C1CCC(N2Cc3cc(C(O)C4(O)CN(C(=O)c5ccccc5-c5ccc(Cl)cc5)C4)ccc3C2=O)C(=O)N1 (stereo not drawn) [GT-05484, 3-(5-((1-(4′-chloro-[1,1′-biphenyl]-2-carbonyl)-3-hydroxyazetidin-3-yl)(hydroxy)methyl)-1-oxoisoindolin-2-yl)piperidine-2,6-dione]	360 nM
CC1(C)CCC(CN2CCN(Cc3cccc4c3CN(C3CCC(=O)NC3=O)C4=O)CC2)=C(c2ccc(F)cc2)C1 (stereo not drawn) [GT-05393, 3-(4-((4-((4′-fluoro-5,5-dimethyl-3,4,5,6-tetrahydro-[1,1′-biphenyl]-2-yl)methyl)piperazin-1-yl)methyl)-1-oxoisoindolin-2-yl)piperidine-2,6-dione]	340 nM
O=C1CCC(N2Cc3cc(CN4CC5CCC4CN5Cc4ccccc4-c4ccc(Cl)cc4)ccc3C2=O)C(=O)N1 (stereo not drawn) [GT-05619, 3-(5-((5-((4′-chloro-[1,1′-biphenyl]-2-yl)methyl)-2,5-diazabicyclo[2.2.2]octan-2-yl)methyl)-1-oxoisoindolin-2-yl)piperidine-2,6-dione]	590 nM
CC1(C)CCC(CN2CCN(C(=O)c3ccc4c(c3)C(=O)N(C3CCC(=O)NC3=O)C4=O)CC2)=C(c2ccc(Cl)cc2)C1 (stereo not drawn) [GT-05366, 5-(4-((4′-chloro-5,5-dimethyl-3,4,5,6-tetrahydro-[1,1′-biphenyl]-2-yl)methyl)piperazine-1-carbonyl)-2-(2,6-dioxopiperidin-3-yl)isoindoline-1,3-dione]	1440 nM
O=C1CCC(N2Cc3cccc(CN4C5CC4CN(C(=O)C4=C(c6ccc(F)cc6)CCCC4)C5)c3C2=O)C(=O)N1 (stereo not drawn) [GT-05480, 3-(7-((3-(4′-fluoro-3,4,5,6-tetrahydro-[1,1′-biphenyl]-2-carbonyl)-3,6-diazabicyclo[3.1.1]heptan-6-yl)methyl)-1-oxoisoindolin-2-yl)piperidine-2,6-dione]	1740 nM
